Test results: patent publication US20070021451A1, “Method for preventing or treating neurologic damage after spinal cord injury” (HAMAMATSU UNIVERSITY SCHOOL OF MEDICINE, priority 2005, published 2007)

Assay: Physiologic parameters (body weight, rectal temperature, mean arterial blood pressure) in rabbit model of spinal cord ischemia
Format: in vivo, New Zealand White rabbits
Experimental: Twenty-six male New Zealand White rabbits weighting 2.2 to 3.0 kg were used in this experiment. Spinal cord ischemia was induced by occluding the abdominal aorta with […] for 20 minutes just distal to the renal arteries. Surgical preparation was conducted according to the method described in the literature, Terada H. et. al., J. Thorac. Cardiovasc. Surg. 2001; 122: 979-85. A 24-gauge venous catheter was placed in the marginal ear vein for drug administration. The rabbits were anesthetized with intravenous sodium pentobarbital (25 mg/kg) and allowed to breathe spontaneously. Lidocaine (0.5%) was administered at the site of the skin incision as local anesthesia. The left common carotid artery was cannulated with a 24-gauge catheter for monitoring the arterial pressure. Core body temperature was continuously monitored with a rectal probe and was maintained at 38.5° C. with the aid of heating lamp. The infrarenal abdominal aorta was exposed through a transperitoneal approach. After systemic heparinization (200 U/kg), spinal cord ischemia was induced by occluding the abdominal aorta with […] for 20 minutes just distal to the renal arteries and just above the aortic bifurcation. Then, the […] released, and the flank was closed. […] The rabbits were assigned randomly to 1 of the 4 groups and subjected to the treatment of (1) above in the following manner. The sham group (n=3) underwent the same operation without aortic occlusion. The control group (n=7) received saline (1 ml) intravenously 15 minutes before aortic occlusion. NS-7 (1 mg/kg) was administered intravenously as a bolus dose 15 minutes before aortic occlusion in group A (n=8) or just after releasing the […] onset of reperfusion) in group B (n=8). All the animals survived the entire observation period. Body weight, rectal temperature, and mean arterial blood pressure values at baseline, 10 minutes after ischemia, and 10 minutes after reperfusion are shown in Table 1. There were no significant differences in the weights of the animals.

[1] = Group A (NS-7 1 mg/kg i.v. 15 min before aortic occlusion), Baseline
[2] = Group A (NS-7 1 mg/kg i.v. 15 min before aortic occlusion), Ischemia, 10 min
[3] = Group A (NS-7 1 mg/kg i.v. 15 min before aortic occlusion), Reperfusion, 10 min
[4] = Group B (NS-7 1 mg/kg i.v. at onset of reperfusion), Baseline
[5] = Group B (NS-7 1 mg/kg i.v. at onset of reperfusion), Ischemia, 10 min
[6] = Group B (NS-7 1 mg/kg i.v. at onset of reperfusion), Reperfusion, 10 min

Cc1cc(-c2ccc(F)cc2)cc(OCCCCCN2CCCCC2)n1.Cl [NS-7, 4-(4-Fluorophenyl)-2-methyl-6-(5-piperidinopentyloxy)pyridine hydrochloride]
MAP (mean arterial blood pressure) [1]: 83 ± 5 mmHg | Rectal Temp. [1]: 38.4 ± 0.7 °C | MAP (mean arterial blood pressure) [2]: 85 ± 5 mmHg | Rectal Temp. [2]: 38.1 ± 0.4 °C | MAP (mean arterial blood pressure) [3]: 78 ± 10 mmHg | Rectal Temp. [3]: 38.1 ± 0.2 °C | MAP (mean arterial blood pressure) [4]: 91 ± 6 mmHg | Rectal Temp. [4]: 38.5 ± 0.4 °C | MAP (mean arterial blood pressure) [5]: 86 ± 7 mmHg | Rectal Temp. [5]: 38.4 ± 0.5 °C | MAP (mean arterial blood pressure) [6]: 81 ± 8 mmHg | Rectal Temp. [6]: 38.6 ± 0.5 °C
